Key:
Assay type in all cases: in vivo
[1] = system: soybean event transformed with a non-herbicide tolerance construct (negative control); experiment: Field trial icafolin injury rating, negative control soybean; settings: averaged across repetitions and field locations
Experimental: (§1) Soy transgenic plants expressing CYP14 or CYP15 were assayed in small scale field trails across nine sites in the United States for tolerance to icafolin spray applications. The plants were grown in field plots and sprayed during the early vegetative stages when plants were roughly at the V3 stage. The icafolin formulation was sprayed at either a 5 g ai/ha or 25 g ai/ha application rate with 2 treatment replications per location. The plants were rated for herbicide injury at 7, 14, 21, and 28 days after treatment (DAT). A total of 12 events for CYP14 and 11 events for CYP15 were tested. An event transformed with a non-herbicide tolerance construct served as a negative control to provide a comparison for injury.

[2] = system: transgenic soybean plants expressing CYP28; experiment: Icafolin herbicide injury rating, greenhouse spray, CYP28 soybean; settings: Table 8
Excerpt: The codon-optimized genes were placed into plant transformation cassettes with each CYP coding sequence operably linked to a constitutive expression element comprising the promoter, leader, and intron of Arabidopsis thaliana Ubiquitin 3 (SEQ ID NO:14) and a Medicago truncatula photosystem II terminator (SEQ ID NO:15). Two plant transformation vectors were created, each comprising one of the CYP gene cassettes and an aadA selectable marker expression cassette, conferring resistance to the antibiotics spectinomycin and streptomycin. Soybean cultivar AG3555 seed-derived embryo explants were transformed with the vectors described above by Agrobacterium-mediated transformation using known methods in the art, and positive-transformed plantlets were selected based on growth in the presence of spectinomycin. Plantlets comprising single copy events were grown in the greenhouse to produce R1 seeds. R1 plants were subsequently selected for the homozygous CYP positive plants, either by molecular analysis of young leaf tissue or by seed chipping prior to planting. These selected plants were then screened for tolerance to the icafolin herbicide.
(§2) Herbicide tolerance screening was performed by selecting R1 plants at roughly the V2-V3 developmental stage and applying the icafolin herbicide in a track sprayer under standard greenhouse conditions. Two independent transgenic events per transgene were selected for screening. The herbicide was formulated with 1% v/v methylated seed oil (MSO) and 2.5% v/v ammonium sulfate (AMS) and sprayed with a XR nozzle at 15 gallons per […] (GPA) to mimic field conditions. The icafolin formulation was sprayed at two rates: 5 g active ingredient (ai)/hectare (ha) and 25 g ai/ha. The treated soybean plants were returned to the greenhouse following spray application and allowed to grow under standard conditions. The plants were rated for herbicide injury at approximately 14 and 21 days after treatment (DAT). Untreated transgenic plants and control (wild-type) plants were used for phenotypic comparison. The herbicide injury rating accounts for plant malformation, stunting, chlorosis, necrosis, and plant death relative to the untreated control plants. An injury rating of approximately 90% or above indicates nearly complete plant death. An injury rating of less than 30% indicates partial tolerance and an injury rating of less than 20% indicates good tolerance. Injury ratings were collected and analyzed, and photographs of representative plants were taken.

[3] = system: control (wild-type) soybean plants; experiment: Icafolin herbicide injury rating, greenhouse spray, control soybean; settings: for Percent Injury 13 DAT / Percent Injury 14 DAT / Percent Injury 15 DAT / Percent injury 21 DAT: Control
Experimental: Herbicide tolerance screens were performed by selecting R1 plants at roughly the V2-V3 developmental stage and applying icafolin herbicide with a track sprayer under standard greenhouse conditions. Two independent transgenic events per transgene were screened. The herbicide was formulated with 1% v/v methylated seed oil (MSO) and 2.5% v/v ammonium sulfate (AMS) and sprayed with a XR nozzle at 15 gallons per […] (GPA) to mimic field conditions. The icafolin used in this Example and in the experiments described in Examples 2-4 was a mixture of the methyl ester forms of the 2R, 4R and 2S, 4S isomers. The icafolin formulation was sprayed at two rates: 5 g active ingredient (ai)/hectare (ha) and 25 g ai/ha. The herbicide treated soybean plants were returned to the greenhouse following spray application and allowed to grow under standard conditions. Plants were rated for herbicide injury at approximately 14 and 21 days after treatment (DAT). Untreated transgenic plants and control (wild-type) plants were used for phenotypic comparison. The herbicide injury rating accounts for plant malformation, stunting, chlorosis, necrosis, and plant death relative to the untreated control plants. An injury rating of approximately 90% or above indicates nearly complete plant death. An injury rating of less than 30% indicates partial tolerance, and an injury rating of less than 20% indicates good tolerance. Injury ratings were collected and analyzed, and photographs of representative plants were taken.
as §2
as §2, with “13” for “14”, “An injury rating of approximately 90% or above indicates nearly complete plant death. An injury rating of less than 30% indicates partial tolerance and an injury rating of less than 20% indicates good tolerance. Injury ratings were collected and analyzed, and photographs of representative plants were taken.” left out

[4] = system: Soy transgenic plants expressing CYP14; experiment: Field trial icafolin injury rating, CYP14 soybean; settings: for Percent Plant Injury (21 DAT): averaged across repetitions, field locations and events
Experimental: as §1

[5] = CYP28 Event 44, 5 g ai/ha icafolin
[6] = CYP28 Event 44, 25 g ai/ha icafolin
[7] = CYP28 Event 90, 5 g ai/ha icafolin
[8] = CYP28 Event 90, 25 g ai/ha icafolin
[9] = 5 g ai/ha icafolin, Experiment 1
[10] = 25 g ai/ha icafolin, Experiment 1

C=C[C@]1(C(=O)N[C@H]2CO[C@@H](C(=O)OC)C2)CC(c2cc(F)cc(F)c2)=NO1 (relative stereo) [icafolin, methyl(2R*,4R*)-4-[[(5S)-3-(3,5-difluorophenyl)-5-vinyl-4H-isoxazole-5-carbonyl]amino]tetrahydrofuran-2-carboxylate] was tested, and the “Percent Plant Injury (21 DAT)” value ([1]; 5 g ai/ha icafolin) was 18.9%, the “Percent Plant Injury (21 DAT)” value ([1]; 25 g ai/ha icafolin) was 62.8% and the “Percent Injury 14 DAT” value [2, 5] was 15.6%. For the same compound, the “Percent injury 21 DAT” value [2, 5] was 13.3%, the “Percent Injury 14 DAT” value [2, 6] was 67.2% and the “Percent injury 21 DAT” value [2, 6] was 56.7%. The “Percent Injury 14 DAT” value [2, 7] was 28.0%, the “Percent injury 21 DAT” value [2, 7] was 13.0% and the “Percent Injury 14 DAT” value [2, 8] was 68.0%. The “Percent injury 21 DAT” value [2, 8] was 74.0%, the “Percent Injury 13 DAT” value ([3]; 5 g ai/ha icafolin, 13 DAT, Table 10 (Example 4)) was 42.5% and the “Percent Injury 14 DAT” value ([3]; 5 g ai/ha icafolin, 14 DAT, Experiment 2) was 61%. For the same compound, the “Percent Injury 14 DAT” value ([3]; 5 g ai/ha icafolin, 14 DAT, Table 8 (Example 3)) was 45.0%, the “Percent Injury 15 DAT” value [3, 9] was 42% and the “Percent injury 21 DAT” value [3, 9] was 50%. The “Percent injury 21 DAT” value ([3]; 5 g ai/ha icafolin, Experiment 2) was 49%, the “Percent injury 21 DAT” value ([3]; 5 g ai/ha icafolin, Table 8 (Example 3)) was 35.6% and the “Percent injury 21 DAT” value ([3]; 5 g ai/ha icafolin, Table 10 (Example 4)) was 35.0%. For the same compound, the “Percent Injury 13 DAT” value ([3]; 25 g ai/ha icafolin, 13 DAT, Table 10 (Example 4)) was 70.0%, the “Percent Injury 14 DAT” value ([3]; 25 g ai/ha icafolin, 14 DAT, Experiment 2) was 90% and the “Percent Injury 14 DAT” value ([3]; 25 g ai/ha icafolin, 14 DAT, Table 8 (Example 3)) was 78.1%. For the same compound, the “Percent Injury 15 DAT” value [3, 10] was 75%, the “Percent injury 21 DAT” value [3, 10] was 81% and the “Percent injury 21 DAT” value ([3]; 25 g ai/ha icafolin, Experiment 2) was 91%. The “Percent injury 21 DAT” value ([3]; 25 g ai/ha icafolin, Table 8 (Example 3)) was 83.1%, the “Percent injury 21 DAT” value ([3]; 25 g ai/ha icafolin, Table 10 (Example 4)) was 79.4% and the “injury” value ([3]; control, 25 g ai/ha, 13 DAT, Example 4) was “about 70%”. For the same compound, the “injury” value ([3]; control, 25 g ai/ha, 14 DAT, Example 3) was “about 78%”, the “injury” value ([3]; treated control (wild-type), 5 g ai/ha, Example 1) was “around 50%” and the Injury in words ([3]; treated control (wild-type), 5 g ai/ha, Experiment 1) was “heavily injured”. The Injury in words ([3]; treated control (wild-type), 25 g ai/ha, Experiment 1) was “nearly completely killed”, the “injury” value ([3]; treated control, 5 g ai/ha, 13 DAT, Example 4) was “around 42%” and the “injury” value ([3]; treated control, 5 g ai/ha, 14 DAT, Example 3) was “around 45%”. For the same compound, the “injury” value ([3]; treated controls, 25 g ai/ha, Example 1) was “around 90%”, the “Percent Plant Injury (21 DAT)” value ([4]; 5 g ai/ha icafolin) was 11.4% and the “injury ratings” value ([4]; 5 g ai/ha, 21 DAT) was “below 15%”. The Tolerance to icafolin ([4]; 25 g ai/ha) was “Incomplete tolerance” and the “Percent Plant Injury (21 DAT)” value ([4]; 25 g ai/ha icafolin) was 41.1%.
